≈ marks a conversion by molar mass, not a printed value.

A word on the Kd: it is the free concentration of one partner at which half of the binding sites on the other are occupied at equilibrium, for simple one-to-one binding. A low value points to higher affinity. For orientation: MIC means the lowest concentration that inhibits growth of the organism.

Target in one experiment: not listed separately
The experiment in a line: Displacement of UDP-fluorescein from Mycobacterium tuberculosis UDP-galactopyranose mutase by fluorescence polarization assay.
Conditions: not given
(In general: Fluorescence polarisation rises when a labelled molecule tumbles more slowly, as on binding a larger partner.)
`COc1ccc(C#C/C=C2\Cn3cc(I)c4cccc(c43)C(=O)O2)cc1` returned a dissociation constant (Kd) of 72.9 µM. On to `O=C1O/C(=C/I)Cn2cc(I)c3cccc1c32`, for which the dissociation constant Kd amounted to 138 µM. Against the preceding compound, the Kd is about 1.9-fold higher.

A further experiment deals with Mycobacterium tuberculosis. The experiment in a line: Antitubercular activity against Mycobacterium tuberculosis mc2 6230 assessed as inhibition of bacterial growth incubated for 7 days by microtiter plate assay. Type of experiment: functional. Particulars: mc2 6230, 168 h, time 7 day.
Turning to `COc1ccc(/C=C2\Cn3cc(I)c4cccc(c43)C(=O)O2)cc1`, the MIC was more than 100 µg/mL.

For `O=C1OC(CSc2ccccc2)Cc2cn(Cc3ccccc3)c3cccc1c23` (stereo not given), the minimum inhibitory concentration (MIC) is more than 100 µg/mL. In the case of `COc1ccccc1-c1cn(CC2Cc3cn(Cc4ccccc4)c4cccc(c34)C(=O)O2)nn1` (stereo not given), the MIC was more than 100 µg/mL.

Consider `O=C1O/C(=C/C#Cc2ccccc2)Cn2cc(I)c3cccc1c32`, for which the minimal inhibitory concentration (MIC) came out at 0.4 µg/mL (≈ 0.941 µM). `CC(C)CCC#C/C=C1\Cn2cc(I)c3cccc(c32)C(=O)O1`: the minimal inhibitory concentration (MIC) was found to be 0.2 µg/mL (≈ 0.477 µM). On to `O=C1OC(CI)Cc2cn(Cc3ccccc3)c3cccc1c23` (stereo not given), for which the MIC amounted to 12.5 µg/mL (≈ 30 µM). `O=C1OC(Cn2cc(-c3ccccc3F)nn2)Cc2cn(Cc3ccccc3)c3cccc1c23` (stereo not given): the MIC is more than 100 µg/mL. As for `CCCCc1cn(CC2Cc3cn(Cc4ccccc4)c4cccc(c34)C(=O)O2)nn1` (stereo not given), the minimal inhibitory concentration (MIC) is more than 100 µg/mL. With `O=C1OC(Cn2cc(CCBr)nn2)Cc2cn(Cc3ccccc3)c3cccc1c23` (stereo not given), the MIC is 25 µg/mL (≈ 53.7 µM).

Regarding `COc1cccc(SCC2Cc3cn(Cc4ccccc4)c4cccc(c34)C(=O)O2)c1` (stereo not given), the minimal inhibitory concentration (MIC) was more than 100 µg/mL. Still for that read-out and setting: for `O=C1OC(Cn2cc(-c3ccc(F)cc3F)nn2)Cc2cn(Cc3ccccc3)c3cccc1c23` (stereo not given) the value was more than 100 µg/mL; for `CCOC(=O)CCCc1cn(CC2Cc3cn(Cc4ccccc4)c4cccc(c34)C(=O)O2)nn1` (stereo not given), more than 100 µg/mL. `COc1ccc(C#C/C=C2\Cn3cc(I)c4cccc(c43)C(=O)O2)cc1`: the minimum inhibitory concentration (MIC) came out at 0.2 µg/mL (≈ 0.439 µM).

Consider `CC(C)CCc1cn(CC2Cc3cn(Cc4ccccc4)c4cccc(c34)C(=O)O2)nn1` (stereo not given), for which the MIC was more than 100 µg/mL.

On to `CCCCCCCc1cn(CC2Cc3cn(Cc4ccccc4)c4cccc(c34)C(=O)O2)nn1` (stereo not given), for which the MIC is more than 100 µg/mL. Consider `COc1ccc(-c2cn(CC3Cc4cn(Cc5ccccc5)c5cccc(c45)C(=O)O3)nn2)cc1` (stereo not given), for which the minimum inhibitory concentration (MIC) is more than 100 µg/mL. As for `CCOC(=O)CCCC#C/C=C1\Cn2cc(I)c3cccc(c32)C(=O)O1`, the minimal inhibitory concentration (MIC) was found to be 0.4 µg/mL (≈ 0.863 µM). In the case of `O=C1O/C(=C/I)Cn2cc(I)c3cccc1c32`, the minimum inhibitory concentration (MIC) came to 1.6 µg/mL (≈ 3.55 µM). On to `O=C1OC(Cn2cc(C3CC3)nn2)Cc2cn(Cc3ccccc3)c3cccc1c23` (stereo not given), for which the MIC was more than 100 µg/mL.

Take `O=C1OC(Cn2cc(-c3ccccc3)nn2)Cc2cn(Cc3ccccc3)c3cccc1c23` (stereo not given): the MIC was more than 100 µg/mL.

On to `CN(Cc1cn(CC2Cc3cn(Cc4ccccc4)c4cccc(c34)C(=O)O2)nn1)S(C)(=O)=O` (stereo not given), for which the minimal inhibitory concentration (MIC) is more than 100 µg/mL.

As for `CCCCC#C/C=C1\Cn2cc(I)c3cccc(c32)C(=O)O1`, the MIC came to 0.4 µg/mL (≈ 0.987 µM). As for `COc1ccccc1SCC1Cc2cn(Cc3ccccc3)c3cccc(c23)C(=O)O1` (stereo not given), the MIC is more than 100 µg/mL.

The values are drawn from ChEMBL document CHEMBL4811321, “Synthesis and biological evaluation of 3,4-dihydro-1H-[1,4] oxazepino [6,5,4-hi] indol-1-ones and 4,6-dihydrooxepino [5,4,3-cd] indol-1(3H)-ones as Mycobacterium tuberculosis inhibitors” (Bioorg Med Chem, 2021).
